Reference: US20230285347A1, “Preterm Labour with Prostaglandin E2 Receptor Agonists” (IMPERIAL COLLEGE INNOVATIONS LIMITED, priority 2020, published 2023)

Key:
EP2 [1] = biological target: T1, EP2 (Homo sapiens, UniProt P43116); experiment: Intracellular calcium response in primary myometrial cells; assay type: cell-based; details: PGN9856i 100 nM, FIG. 6
T1 construct: primary human myocytes cultured from term pregnant, non-labouring, myometrium; endogenous in cells; host or cells: primary human myometrial cells (myocytes) cultured from pregnant myometrium
Text: One-way ANOVA with Dunnet's multiple comparison post-hoc test: **p<0.01, and (B) calcium intensity traces over time from representative cells from (A). PGN9856i is unable to elicit intracellular calcium release in primary myometrial cells.
In the myometrium EP2 is an important regulator of parturition. To assess if PGN9856i, butaprost and AH13205 induce similar second messenger profiles in the myometrium as HEK 293 cells, primary human myocytes cultured from term pregnant, non-labouring, myometrium, were treated with each ligand and intracellular cAMP, calcium and PGE2 release was measured.
Myometrial tissue was acquired at St. Mary's hospital, Queen Charlotte and Chelsea hospital and Charing Cross hospital, London. Tissue was obtained from women provided with informed written consent with the approval from the Riverside Research Ethics Committee (RREC 3357, 1997-5089, 19/LO/1657) and experiments were carried out under the committee's guidelines and recommendations. Tissues were obtained from term (38+0-40 weeks gestation) pregnant women undergoing elective caesarean from the upper margin of the incision made at the lower segment of the uterus, before or after the onset of labor. Tissues taken from women in early labour (<3 cm cervical dilation) or late labour (>3 cm cervical dilation) with/without induction with syntocinon, an oxytocin analogue. […]

EP2 [2] = biological target: T1, EP2; experiment: COX-2 protein by western blot in myometrial cells from different labouring groups; assay type: cell-based; details: butaprost 10 μM, 6 hours
Method: L=non-labouring, L+E=early stage spontaneous labour, L+L=late stage spontaneous labour, L+SE=early stage induced labour, L+SL=late stage induced labour. (A) COX-2 protein (70 kB) determined by western blot and normalised to GAPDH protein (38 kB) in different labouring groups following 6 hour butaprost (10 μM) stimulation. Data shown as mean±SEM, n=5. Groups compared using one-way ANOVA with Dunnett's multiple comparison post-hoc test: *p<0.05. (B) Representative western blot for FIG. 9A.
Myometrial cells taken from women in different labouring groups were treated for 6-hours with butaprost. Confluent myometrial cells were lysed in RIPA buffer containing 1% Triton x-100, 1% Sodium deoxycholate, 0.1% SDS, 150 mM NaCl, 10 mM Tris, 1 mM EDTA plus 1 mM sodium orthovanadate and one Pierce EDTA-Free protease inhibitor mini tablet. 20-40 μg of lysate as determined via Bradford assay plus Laemmli buffer (0.5M pH 6.8 Tris, 10% SDS, 1% Bromophenol blue, 2% B-ME, 20% Glycerol) were separated with 1×SDS running buffer at 140V on SDS-PAGE gels polymerized with TEMED and ammonium persulfate: separating gel (40% poly, 1M pH 8.8 Tris, 10% SDS), […] (40% poly, 1M Tris (pH 6.8), 10% SDS). Proteins were transferred onto nitrocellulose membranes before blocking in 5% Milk TBS-T for 30 minutes and incubated overnight at 4° C. with primary antibody and blocking buffer (1:1000). Membranes were then incubated in TBS-T with appropriate secondary antibody for 1-3 hours (1:2000) before signal detection using HRP substrate and chemiluminescent imager (ImageQuant LAS 4000).

T1 sequence (P43116 whole entry): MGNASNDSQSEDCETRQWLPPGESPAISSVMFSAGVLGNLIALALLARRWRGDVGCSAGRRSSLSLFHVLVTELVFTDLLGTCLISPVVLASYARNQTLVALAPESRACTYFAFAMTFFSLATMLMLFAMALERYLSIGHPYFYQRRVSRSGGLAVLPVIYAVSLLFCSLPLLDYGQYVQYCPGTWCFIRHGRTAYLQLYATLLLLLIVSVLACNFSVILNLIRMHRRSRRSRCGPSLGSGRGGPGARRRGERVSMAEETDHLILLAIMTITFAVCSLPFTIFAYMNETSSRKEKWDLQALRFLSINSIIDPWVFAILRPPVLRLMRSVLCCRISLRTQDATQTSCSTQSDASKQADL

Structure (SMILES) | activation of calcium pathway (EP2 [1]) | agonist-induced COX-2 in early stage labouring groups (EP2 [2]; all early stage labouring groups) | agonist-induced COX-2 increase in late stage labouring groups (EP2 [2]; either late stage labouring group) | agonist-induced increases in COX-2 across groups (EP2 [2]; non-labouring and labouring groups, normalised to GAPDH)
CC(C)OC(=O)COc1cccc(NC(=O)c2cc(-c3cccc(F)c3)ccc2F)c1 [PGN9856i, propan-2-yl 2-(3-{3′,4-difluoro-[1,1′-biphenyl]-3-amido}phenoxy)acetate] | unable to activate calcium | – | – | –
CCCC1([C@H](O)C/C=C/[C@H]2[C@H](O)CC(=O)[C@@H]2CCCCCCC(=O)OC)CCC1 [butaprost] | – | significant increase in all early stage labouring groups | not apparent in either late stage labouring group | maintained across non-labouring and labouring groups
